Results from patent US6127136A, “Detection of dioxin-like compounds by detection of transformed Ah receptor/ARNT complex” (Paracelsian, Inc., priority 1996, dated 2000).

Key:
Assay type in all cases: biochemical, guinea pig (hepatic cytosol)
[1] = system: transformed AhR/ARNT complex; assay: size exclusion of biotin-DRE/AhR/ARNT/anti-ARNT complex followed by capture on neutravidin ELISA plates; settings: FIG. 5, OD at 405 nm
Description: Size-exclusion of biotin-DRE/AhR/ARNT/anti-ARNT complex followed by capture on neutravidin ELISA plates and detection with anti-rabbit/alkaline phosphatase conjugate.
Diethanolamine buffer was prepared by dissolving 0.4 g Magnesium chloride hexahydrate, 0.8 g sodium azide, 338 mL diethanolamine in 2.5 L deionized water, adjusting pH to 9.8 with concentrated HCl, and adjusting volume to 4 liters.
PNPP stock was prepared fresh by dissoving two 15 mg tablets of para-nitro phenyl phosphate (Sigma, St. Louis, Mo.) in 20 mL diethanolamine buffer.
The same size exclusion column operating conditions were used as described above, except the DRE used was B-ERD oligo (SEQ. ID. #3) and DRE-D oligo (SEQ. ID #1)hybridized as described in methods. […]
Samples were incubated for 2 hours at room temperature as described above to achieve transformation/binding events then put on ice. […] The plate was incubated 2 hours, washed 3 times with 300 uL per well PBS plus 0.02% Tween 20, incubated 1 hour with 200 uL per well 1:1000 anti-rabbit/alkaline phosphatase conjugate in PBS plus 0.02% Tween 20 and 0.1% bovine serum albumin, washed 3 times with 300 uL per well PBS plus Tween 20 and developed 2 hours with 200 uL per well PnPP stock, and the optical density read at 405 nm in an ELISA spectrophotometer.

[2] = target: T1, transformed Ah receptor/ARNT complex (Cavia porcellus, UniProt Q6J287); assay: Ah-ELISA, optimization of salt concentration; design: from tissue; host or cells: hepatic cytosol of male Hartley guinea pigs (animals from Cornell Research Animal Resources)
T1 sequence (Q6J287 1-846): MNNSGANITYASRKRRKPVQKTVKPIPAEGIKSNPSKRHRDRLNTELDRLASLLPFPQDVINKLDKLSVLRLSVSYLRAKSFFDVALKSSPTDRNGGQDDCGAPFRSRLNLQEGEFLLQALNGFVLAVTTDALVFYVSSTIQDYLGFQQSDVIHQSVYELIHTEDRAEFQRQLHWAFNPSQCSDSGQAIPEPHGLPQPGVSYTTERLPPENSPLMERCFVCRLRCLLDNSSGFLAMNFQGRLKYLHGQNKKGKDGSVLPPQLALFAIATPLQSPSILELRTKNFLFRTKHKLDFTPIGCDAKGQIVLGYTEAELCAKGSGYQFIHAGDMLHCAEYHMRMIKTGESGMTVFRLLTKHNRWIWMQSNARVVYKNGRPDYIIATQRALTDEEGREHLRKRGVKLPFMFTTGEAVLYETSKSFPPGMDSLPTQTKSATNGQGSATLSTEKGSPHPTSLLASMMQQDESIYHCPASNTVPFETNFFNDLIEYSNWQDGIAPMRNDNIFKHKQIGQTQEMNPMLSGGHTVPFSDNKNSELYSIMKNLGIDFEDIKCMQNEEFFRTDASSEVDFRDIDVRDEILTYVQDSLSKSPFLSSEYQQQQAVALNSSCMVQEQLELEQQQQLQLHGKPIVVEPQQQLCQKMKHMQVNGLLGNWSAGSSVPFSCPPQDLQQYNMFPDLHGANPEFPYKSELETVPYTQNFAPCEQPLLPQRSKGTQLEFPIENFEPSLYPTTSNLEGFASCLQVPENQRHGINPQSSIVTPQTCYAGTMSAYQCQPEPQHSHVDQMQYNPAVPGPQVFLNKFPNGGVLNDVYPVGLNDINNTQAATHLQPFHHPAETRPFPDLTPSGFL
T1 sequence (Q0WXX3 1-790 partner): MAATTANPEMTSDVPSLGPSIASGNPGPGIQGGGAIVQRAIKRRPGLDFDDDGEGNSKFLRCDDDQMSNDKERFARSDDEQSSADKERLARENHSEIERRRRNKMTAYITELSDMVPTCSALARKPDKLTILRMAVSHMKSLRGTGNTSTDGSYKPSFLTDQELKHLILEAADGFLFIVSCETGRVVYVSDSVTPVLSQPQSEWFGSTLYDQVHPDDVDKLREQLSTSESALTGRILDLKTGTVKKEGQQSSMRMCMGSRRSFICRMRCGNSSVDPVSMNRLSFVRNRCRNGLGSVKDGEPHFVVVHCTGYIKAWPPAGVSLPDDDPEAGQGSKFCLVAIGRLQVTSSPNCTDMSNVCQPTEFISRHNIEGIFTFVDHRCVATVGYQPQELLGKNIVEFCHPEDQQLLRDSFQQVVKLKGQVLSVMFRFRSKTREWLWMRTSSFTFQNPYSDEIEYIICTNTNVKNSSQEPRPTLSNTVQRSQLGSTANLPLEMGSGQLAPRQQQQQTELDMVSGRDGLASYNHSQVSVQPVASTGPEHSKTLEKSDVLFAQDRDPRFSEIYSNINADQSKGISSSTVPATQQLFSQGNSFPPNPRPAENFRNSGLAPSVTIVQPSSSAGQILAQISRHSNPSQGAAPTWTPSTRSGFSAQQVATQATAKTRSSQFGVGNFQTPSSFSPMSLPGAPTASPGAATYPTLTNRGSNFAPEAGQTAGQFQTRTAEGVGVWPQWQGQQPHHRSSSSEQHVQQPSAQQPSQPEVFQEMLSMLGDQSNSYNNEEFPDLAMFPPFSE
Description: The reagents and ELISA plate were prepared as described in Example 7, except the anti-Rabbit/alkaline phosphatase (Sigma, St. Louis, Mo.) was prepared to make a 1:4000 dilution. The final DRE dilution was 31.2 pmol per well. The final dilution of anti-ARNT was 0.275 ug per mL. The DRE was 1/32 of the highest dilution, which corresponds to a final dilution of 0.25 nmol/uL hybridized DRE x 10.6 uL DRE/1700 uL cytosol or 31.2 pmol per well. All other concentrations were the same. All assays were run at approximately 30° C.
The salt concentration during cytosol incubation was varied from 150 mM to 255 mM NaCl at 15 mM increments with a 0 mM NaCl control for with either DMSO or TCDD to determine the effect of salt concentration on background detection. Thus, the assay was run on samples with DMSO (-) or TCDD (+) added at the concentrations taught in Example 7.

[3] = target: T1, transformed Ah receptor/ARNT complex; assay: Ah-ELISA, cytosol volume, time and temperature optimization; design: from tissue; host or cells: hepatic cytosol of male Hartley guinea pigs (animals from Cornell Research Animal Resources)
Description: The reagents and ELISA plate were prepared as described in Example 8. The volume of cytosol, temperature of cytosol incubation and time of incubation were all varied independently. The test volume of cytosol was varied between 50 and 200 μl at 50 μl increments. […] The assay was with a cytosol incubation varying between 30 and 120 minutes at 30 minute increments.

[4] = target: T1, transformed Ah receptor/ARNT complex; assay: Ah-ELISA dose response using PnPP detection; design: from tissue; host or cells: hepatic cytosol of male Hartley guinea pigs (animals from Cornell Research Animal Resources); settings: for Average Optical Density: 405 nm, PnPP 58 minutes
Description: The reagents and ELISA plate were prepared as described in Example 9 with the standard PNPP detection technique. The TCDD concentration was varied tested at 0, 0.016, 0.031, 0.063, 0.125, 0.25, 0.5, and 1.0 nM. After washing the plates PnPP stock was added to each well (200 uL) and the plate was incubated for 1 hour (actually 58 minutes for data shown below), at which time it was read at 405 nm in an ELISA plate reader and milli O.D. recorded.

**Q.** `Clc1cc2c(cc1Cl)Oc1cc(Cl)c(Cl)cc1O2` [TCDD, 2,3,7,8-tetrachlorodibenzo-p-dioxin] was tested. Which “TCDD-dependent peak, fractions” value [1] did it give?
**A.** Its value is 18-28 fractions.

**Q.** What about the DIFF ([2]; 0 mM NaCl) of the same molecule?
**A.** Its DIFF is 1879.

**Q.** What about the RATIO ([2]; 0 mM NaCl) of the same molecule?
**A.** Its RATIO is 6.298.

**Q.** And the “ELISA signal (+)” value ([2]; 0 mM NaCl, TCDD (+))?
**A.** The value was 2233.

**Q.** And the DIFF ([2]; 150 mM NaCl)?
**A.** The DIFF was 2587.

**Q.** What about the RATIO ([2]; 150 mM NaCl) of the same molecule?
**A.** The RATIO was 18.03.

**Q.** What about the “ELISA signal (+)” value ([2]; 150 mM NaCl, TCDD (+)) of the same molecule?
**A.** The value was 2739.

**Q.** What about the DIFF ([2]; 165 mM NaCl) of the same molecule?
**A.** Its DIFF is 2625.

**Q.** And the RATIO ([2]; 165 mM NaCl)?
**A.** The RATIO was 21.

**Q.** And the “ELISA signal (+)” value ([2]; 165 mM NaCl, TCDD (+))?
**A.** Its value is 2756.

**Q.** What about the DIFF ([2]; 180 mM NaCl) of the same molecule?
**A.** Its DIFF is 2661.

**Q.** What about the RATIO ([2]; 180 mM NaCl) of the same molecule?
**A.** The RATIO was 25.96.

**Q.** What about the “ELISA signal (+)” value ([2]; 180 mM NaCl, TCDD (+)) of the same molecule?
**A.** Its value is 2767.

**Q.** And the DIFF ([2]; 195 mM NaCl)?
**A.** Its DIFF is 2609.

**Q.** What about the RATIO ([2]; 195 mM NaCl) of the same molecule?
**A.** Its RATIO is 26.35.

**Q.** And the “ELISA signal (+)” value ([2]; 195 mM NaCl, TCDD (+))?
**A.** Its value is 2712.

**Q.** And the DIFF ([2]; 210 mM NaCl)?
**A.** The DIFF was 2215.

**Q.** And the RATIO ([2]; 210 mM NaCl)?
**A.** The RATIO was 26.29.

**Q.** What about the “ELISA signal (+)” value ([2]; 210 mM NaCl, TCDD (+)) of the same molecule?
**A.** Its value is 2303.

**Q.** And the DIFF ([2]; 225 mM NaCl)?
**A.** Its DIFF is 1697.

**Q.** And the RATIO ([2]; 225 mM NaCl)?
**A.** Its RATIO is 21.89.

**Q.** And the “ELISA signal (+)” value ([2]; 225 mM NaCl, TCDD (+))?
**A.** Its value is 1779.

**Q.** What about the DIFF ([2]; 240 mM NaCl) of the same molecule?
**A.** Its DIFF is 1333.

**Q.** And the RATIO ([2]; 240 mM NaCl)?
**A.** Its RATIO is 16.76.

**Q.** What about the “ELISA signal (+)” value ([2]; 240 mM NaCl, TCDD (+)) of the same molecule?
**A.** Its value is 1418.

**Q.** And the DIFF ([2]; 255 mM NaCl)?
**A.** Its DIFF is 1109.

**Q.** And the RATIO ([2]; 255 mM NaCl)?
**A.** The RATIO was 12.07.

**Q.** What about the “ELISA signal (+)” value ([2]; 255 mM NaCl, TCDD (+)) of the same molecule?
**A.** The value was 1210.

**Q.** What about the DIFF ([2]; column S9) of the same molecule?
**A.** Its DIFF is 86.67.

**Q.** And the RATIO ([2]; column S9)?
**A.** Its RATIO is 1.667.

**Q.** What about the “ELISA signal (+)” value ([2]; column S9, TCDD (+)) of the same molecule?
**A.** Its value is 216.6.

**Q.** What about the “salt concentration giving best ratio of background to detection of TCDD” value ([2]; during cytosol incubation) of the same molecule?
**A.** The value was 180-195 mM NaCl.

**Q.** And the “ave(+)-BG” value ([3]; 50 uL, 120 min, 30 C)?
**A.** Its value is 1006.

**Q.** And the difference ([3]; 50 uL, 120 min, 30 C)?
**A.** Its difference is 984.

**Q.** And the “ave(+)-BG” value ([3]; 100 uL, 120 min, 30 C)?
**A.** The value was 1463.

**Q.** What about the difference ([3]; 100 uL, 120 min, 30 C) of the same molecule?
**A.** Its difference is 1430.

**Q.** And the “ave(+)-BG” value ([3]; 150 uL, 120 min, 30 C)?
**A.** The value was 1910.

**Q.** What about the difference ([3]; 150 uL, 120 min, 30 C) of the same molecule?
**A.** The difference was 1867.

**Q.** And the “ave(+)-BG” value ([3]; 200 uL, 30 min, 30 C)?
**A.** The value was 394.

**Q.** What about the difference ([3]; 200 uL, 30 min, 30 C) of the same molecule?
**A.** Its difference is 359.

**Q.** What about the “ave(+)-BG” value ([3]; 200 uL, 30 min, 38 C) of the same molecule?
**A.** The value was 525.

**Q.** And the difference ([3]; 200 uL, 30 min, 38 C)?
**A.** The difference was 497.

**Q.** And the “ave(+)-BG” value ([3]; 200 uL, 60 min, 30 C)?
**A.** Its value is 1324.

**Q.** And the difference ([3]; 200 uL, 60 min, 30 C)?
**A.** Its difference is 1288.

**Q.** And the “ave(+)-BG” value ([3]; 200 uL, 90 min, 30 C)?
**A.** The value was 1882.

**Q.** And the difference ([3]; 200 uL, 90 min, 30 C)?
**A.** The difference was 1839.

**Q.** What about the “ave(+)-BG” value ([3]; 200 uL, 120 min, 22 C) of the same molecule?
**A.** Its value is 1924.

**Q.** And the difference ([3]; 200 uL, 120 min, 22 C)?
**A.** The difference was 1863.

**Q.** What about the “ave(+)-BG” value ([3]; 200 uL, 120 min, 30 C) of the same molecule?
**A.** The value was 2369.

**Q.** What about the difference ([3]; 200 uL, 120 min, 30 C) of the same molecule?
**A.** Its difference is 2324.

**Q.** And the “ave(+)-BG” value ([3]; 200 uL, 120 min, 35 C)?
**A.** The value was 959.

**Q.** What about the difference ([3]; 200 uL, 120 min, 35 C) of the same molecule?
**A.** Its difference is 898.

**Q.** And the “Average Optical Density” value ([4]; 0.016 nM TCDD)?
**A.** The value was 0.3.

**Q.** And the “Average Optical Density” value ([4]; 0.031 nM TCDD)?
**A.** The value was 0.338.

**Q.** And the “Average Optical Density” value ([4]; 0.063 nM TCDD)?
**A.** The value was 0.4.

**Q.** What about the “Average Optical Density” value ([4]; 0.125 nM TCDD) of the same molecule?
**A.** The value was 0.527.

**Q.** What about the “Average Optical Density” value ([4]; 0.25 nM TCDD) of the same molecule?
**A.** The value was 0.804.

**Q.** And the “Average Optical Density” value ([4]; 0.5 nM TCDD)?
**A.** The value was 1.409.

**Q.** And the “Average Optical Density” value ([4]; 1 nM TCDD)?
**A.** Its value is 2.155.

**Q.** And the EC50 ([4]; PnPP detection, FIG. 6)?
**A.** The EC50 was ~0.248 nM.
